Assay results: patent US20240199587A1, “HETEROCYCLIC COMPOUNDS” (Hoffmann-La Roche Inc., priority 2021, published 2024)

Target: T1, MAGL (Homo sapiens, UniProt Q99685)
T1 sequence (Q99685 1-303): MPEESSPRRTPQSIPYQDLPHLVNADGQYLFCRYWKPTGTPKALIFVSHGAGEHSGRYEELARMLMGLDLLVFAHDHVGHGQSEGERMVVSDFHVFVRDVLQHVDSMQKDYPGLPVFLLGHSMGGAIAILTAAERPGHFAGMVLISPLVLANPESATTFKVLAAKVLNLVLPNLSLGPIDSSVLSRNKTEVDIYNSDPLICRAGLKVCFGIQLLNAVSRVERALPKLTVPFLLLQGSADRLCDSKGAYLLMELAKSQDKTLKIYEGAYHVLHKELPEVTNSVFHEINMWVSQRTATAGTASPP
Assay: 2-AG assay (MAGL inhibitory activity, hydrolysis of 2-arachidonoylglycerol to arachidonic acid followed by mass spectrometry)
Format: biochemical
Conditions: 8 μM 2-arachidonoylglycerol, 15 min pre-incubation, 30 min incubation at RT, RapidFire MS readout
In short: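 Human MAGL ([…] final) pre-incubated 15 min at RT with compound in 50 mM TRIS, 1 mM EDTA, 0.01% Tween-20, 2.5% DMSO; 8 μM 2-AG then added for 30 min at RT. Acetonitrile quench with d8-arachidonic acid; arachidonic acid measured by RapidFire SPE–MS/MS, activity from arachidonic acid/d8 ratio.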

Structure (SMILES)	IC50 [nM]
CC(C)(C)c1nc(C23CC(C(=O)N4CC5(CC(n6cnc(C7CC7)n6)C5)C4)(C2)C3)no1 [Example 163, [3-(5-tert-butyl-1,2,4-oxadiazol-3-yl)-1-bicyclo[1.1.1]pentanyl]-[6-(3-cyclopropyl-1,2,4-triazol-1-yl)-2-azaspiro[3.3]heptan-2-yl]methanone]	192
O=C(N1CC(c2cn(C3(C(F)(F)F)CC3)nn2)C1)N1CC2(CC(n3cnc(C4CC4)n3)C2)C1 [Example 164, [6-(3-cyclopropyl-1,2,4-triazol-1-yl)-2-azaspiro[3.3]heptan-2-yl]-[3-[1-[1-(trifluoromethyl)cyclo-propyl]triazol-4-yl]azetidin-1-yl]methanone]	64.6
O=C(N1CC(c2cn(C3(C(F)(F)F)COC3)nn2)C1)N1CC2(CC(n3cnc(C4CC4)n3)C2)C1 [Example 167, [6-(3-cyclopropyl-1,2,4-triazol-1-yl)-2-azaspiro[3.3]heptan-2-yl]-[3-[1-[3-(trifluoromethyl)oxetan-3-yl]triazol-4-yl]azetidin-1-yl]methanone]	85.5
CC(C)(C)c1nnc(-c2ccc(C(=O)N3CC4(CC(n5cnc(Cl)n5)C4)C3)cc2)o1 [Example 168, [4-(5-tert-butyl-1,3,4-oxadiazol-2-yl)phenyl]-[6-(3-chloro-1,2,4-triazol-1-yl)-2-azaspiro[3.3]heptan-2-yl]methanone]	1490
CC(C)(C)c1nnc(-c2ccc(C(=O)N3CC4(CC(n5ccc(C6CC6)n5)C4)C3)cc2)o1 [Example 169, [4-(5-tert-butyl-1,3,4-oxadiazol-2-yl)phenyl]-[6-(3-cyclopropylpyrazol-1-yl)-2-azaspiro[3.3]heptan-2-yl]methanone]	659
CC(C)(C)n1cc(-c2ccc(C(=O)N3CC4(CC(n5cnc(Cl)n5)C4)C3)cc2)cn1 [Example 170, [4-(1-tert-butylpyrazol-4-yl)phenyl]-[6-(3-chloro-1,2,4-triazol-1-yl)-2-azaspiro[3.3]heptan-2-yl]methanone]	286
CC(C)(C)c1nc(-c2ccc(C(=O)N3CC4(CC(n5ccc(C6CC6)n5)C4)C3)cc2)no1 [Example 171, [4-(5-tert-butyl-1,2,4-oxadiazol-3-yl)phenyl]-[6-(3-cyclopropylpyrazol-1-yl)-2-azaspiro[3.3]heptan-2-yl]methanone]	96.4
CC(C)(C)c1nc(-c2ccc(C(=O)N3CC4(CC(n5cnc(Cl)n5)C4)C3)cc2)no1 [Example 172, [4-(5-tert-butyl-1,2,4-oxadiazol-3-yl)phenyl]-[6-(3-chloro-1,2,4-triazol-1-yl)-2-azaspiro[3.3]heptan-2-yl]methanone]	170
O=C(C1CC(COCC2(C(F)(F)F)CC2)C1)N1CC2(CC(n3cnc(C4CC4)n3)C2)C1 (stereo not shown) [Example 173, [6-(3-cyclopropyl-1,2,4-triazol-1-yl)-2-azaspiro[3.3]heptan-2-yl]−[3-[[1-(trifluoromethyl)cyclopropyl]methoxymethyl]cyclobutyl]methanone]	546
Cc1cc(C(=O)N2CC3(CC(n4cnc(Cl)n4)C3)C2)cnc1OCC1(C(F)(F)F)CC1 [Example 174, [6-(3-chloro-1,2,4-triazol-1-yl)-2-azaspiro[3.3]heptan-2-yl]-[5-methyl-6-[[1-(trifluoromethyl)cyclopropyl]methoxy]-3-pyridyl]methanone]	183
Cc1cc(C(=O)N2CC3(CC(n4cnc(Cl)n4)C3)C2)cnc1OC(C)(C)C(F)(F)F [Example 175, [6-(3-chloro-1,2,4-triazol-1-yl)-2-azaspiro[3.3]heptan-2-yl]-[5-methyl-6-(2,2,2-trifluoro-1,1-dimethyl-ethoxy)-3-pyridyl]methanone]	221
O=C(N1CC(OCc2ccc(C(F)(F)F)cc2)C1)N1CC2(CC(n3cnc(N4CCC4)n3)C2)C1 [Example 177, (6-(3-(azetidin-1-yl)-1H-1,2,4-triazol-1-yl)-2-azaspiro[3.3]heptan-2-yl)(3-((4-(trifluoromethyl)benzyl)oxy)azetidin-1-yl)methanone]	141
CC(C)(C)c1nc(-c2ccc(C(=O)N3CC4(C3)CC(O)(c3cnc(C5CC5)o3)C4)cc2)no1 [Example 179, [4-(5-tert-butyl-1,2,4-oxadiazol-3-yl)phenyl]−[6-(2-cyclopropyloxazol-5-yl)-6-hydroxy-2-azaspiro[3.3]heptan-2-yl]methanone]	1030
CC(C)(C)c1nc(-c2ccc(C(=O)N3CC4(CC(n5nccc5C5CC5)C4)C3)cc2)no1 [Example 180, [4-(5-tert-butyl-1,2,4-oxadiazol-3-yl)phenyl]-[6-(5-cyclopropylpyrazol-1-yl)-2-azaspiro[3.3]heptan-2-yl]methanone]	4690
O=C(N1CC2(CC(Cc3ccc(F)cc3F)C2)C1)N1CC2(CC(n3cnc(C4CCC4)n3)C2)C1 [Example 184, [6-(3-cyclobutyl-1,2,4-triazol-1-yl)-2-azaspiro[3.3]heptan-2-yl]-[6-[(2,4-difluorophenyl)methyl]-2-azaspiro[3.3]heptan-2-yl]methanone]	0.1
CCc1ncn(C2CC3(C2)CN(C(=O)N2CC4(CC(Cc5ccc(F)cc5F)C4)C2)C3)n1 [Example 186, [6-[(2,4-difluorophenyl)methyl]-2-azaspiro[3.3]heptan-2-yl]-[6-(3-ethyl-1,2,4-triazol-1-yl)-2-azaspiro[3.3]heptan-2-yl]methanone]	0.1
O=C(N1CC2(CC(n3cnc(C4CC4)n3)C2)C1)N1CC2(CN(Cc3ccc(C(F)(F)F)cc3F)C2)C1 [Example 189, [6-(3-cyclopropyl-1,2,4-triazol-1-yl)-2-azaspiro[3.3]heptan-2-yl]-[6-[[2-fluoro-4-(trifluoromethyl)phenyl]methyl]-2,6-diazaspiro[3.3]heptan-2-yl]methanone]	0.2
CS(=O)(=O)c1cccc(CC2CC3(C2)CN(C(=O)N2CC4(CC(n5cnc(C6CC6)n5)C4)C2)C3)c1 [Example 192, [6-(3-cyclopropyl-1,2,4-triazol-1-yl)-2-azaspiro[3.3]heptan-2-yl]-[6-(3-mesylbenzyl)-2-azaspiro[3.3]heptan-2-yl]methanone]	0.2

Other lines, results leading:

IC50 [nM]	Structure (SMILES)
102	O=C(N1CC(n2cc(OCC(F)(F)F)cn2)C1)N1CC2(CC(n3cnc(C4CC4)n3)C2)C1 [Example 165, [6-(3-cyclopropyl-1,2,4-triazol-1-yl)-2-azaspiro[3.3]heptan-2-yl]-[3-[4-(2,2,2-trifluoroethoxy)pyrazol-1-yl]azetidin-1-yl]methanone]
97.9	O=C(N1CC(c2nc(C3(C(F)(F)F)CC3)no2)C1)N1CC2(CC(n3cnc(C4CC4)n3)C2)C1 [Example 166, [6-(3-cyclopropyl-1,2,4-triazol-1-yl)-2-azaspiro[3.3]heptan-2-yl]-[3-[3-[1-(trifluoromethyl)cyclo-propyl]-1,2,4-oxadiazol-5-yl]azetidin-1-yl]methanone]
4610	CC(C)(C)n1cc(C2CN(C(=O)N3CC4(CC(n5cnc(C6CC6)n5)C4)C3)C2)cn1 [Example 181, [3-(1-tert-butylpyrazol-4-yl)azetidin-1-yl]−[6-(3-cyclopropyl-1,2,4-triazol-1-yl)-2-azaspiro[3.3]heptan-2-yl]methanone]
2580	Cc1cc(C2CN(C(=O)N3CC4(CC(n5cnc(C6CC6)n5)C4)C3)C2)ccc1OC(F)(F)F [Example 182, [6-(3-cyclopropyl-1,2,4-triazol-1-yl)-2-azaspiro[3.3]heptan-2-yl]-[3-[3-methyl-4-(trifluoromethoxy)phenyl]azetidin-1-yl]methanone]
0.1	O=C(N1CC(Oc2ccc(C3CC3)cc2)C1)N1CC2(CC(n3cnc(C4CC4)n3)C2)C1 [Example 183, (6-(3-cyclopropyl-1H-1,2,4-triazol-1-yl)-2-azaspiro[3.3]heptan-2-yl)(3-(4-cyclopropylphenoxy)azetidin-1-yl)methanone]
0.1	O=C(N1CC(Oc2nccc(C3CC3)c2Cl)C1)N1CC2(CC(n3cnc(C4CC4)n3)C2)C1 [Example 185, [3-[(3-chloro-4-cyclopropyl-2-pyridyl)oxy]azetidin-1-yl]-[6-(3-cyclopropyl-1,2,4-triazol-1-yl)-2-azaspiro[3.3]heptan-2-yl]methanone]
0.2	O=C(N1CC(Oc2ccc(C(F)(F)F)c(C3CC3)c2)C1)N1CC2(CC(n3cnc(C4CC4)n3)C2)C1 [Example 187, [6-(3-cyclopropyl-1,2,4-triazol-1-yl)-2-azaspiro[3.3]heptan-2-yl]-[3-[3-cyclopropyl-4-(trifluoromethyl)phenoxy]azetidin-1-yl]methanone]
0.2	N#Cc1cc(C2CC2)ccc1OC1CN(C(=O)N2CC3(CC(n4cnc(C5CC5)n4)C3)C2)C1 [Example 188, 5-cyclopropyl-2-[1-[6-(3-cyclopropyl-1,2,4-triazol-1-yl)-2-azaspiro[3.3]heptane-2-carbonyl]azetidin-3-yl]oxy-benzonitrile]
0.2	O=C(N1CC(Oc2ccc(C3CC3)cc2F)C1)N1CC2(CC(n3cnc(C4CC4)n3)C2)C1 [Example 190, [3-(4-cyclopropyl-2-fluoro-phenoxy)azetidin-1-yl]-[6-(3-cyclopropyl-1,2,4-triazol-1-yl)-2-azaspiro[3.3]heptan-2-yl]methanone]
0.2	N#Cc1c(OC2CN(C(=O)N3CC4(CC(n5cnc(C6CC6)n5)C4)C3)C2)cccc1C1CC1 [Example 191, 2-cyclopropyl-6-[1-[6-(3-cyclopropyl-1,2,4-triazol-1-yl)-2-azaspiro[3.3]heptane-2-carbonyl]azetidin-3-yl]oxy-benzonitrile]
